# Test system: SH-SY5Y M-currents (KCNQ2, KCNQ3 and KCNQ5)
# Experiment: SH-SY5Y native cell line FLIPR assay (voltage-sensitive dye DiBAC)
# Type: cell-based, mouse neuroblastoma, rat glioma hybrid cell line
# Settings: FLIPR assay, SH-SY5Y native cell line; Table 1; read-out: SH-SY5Y EC50
# Source text: SH-SY5Y cells, a mouse neuroblastoma, rat glioma hybrid cell line, functionally express M-currents (Robbins et al., J. Physiol. 451: 159-85 (1992). SH-SY5Y M-currents are likely comprised, at least in part, of KCNQ2, KCNQ3 and KCNQ5, since these genes are reportedly robustly expressed in differentiated SH-SY5Y cells (Selyanko et al., J. Neurosci. 19(18): 7742-56 (1999); Schroeder et al., J. Biol. Chem. 275(31): 24089-95 (2000)) and KCNQ3 dominant-negative constructs reduce M-current density in these cells (Selyanko et al., J. Neurosci. 22(5): RC212 (2002).
# SH-SY5Y were maintained in DMEM (high glucose) supplemented with 10% fetal bovine serum, 0.05 mM pyridoxine, 0.1 mM hypoxanthine, 400 nM aminopterin, […], 50 μgml^−1 gentamycin and 10 mM HEPES, in an incubator at 37° C. with a humidified atmosphere of 5% CO2. Cells were plated in 96 well plates differentiated by addition of 10 μM PGE1 and 50 μM isomethylbutylxanthine to the growth media prior to study.
# Differentiated SH-SY5Y cells were loaded with voltage-sensitive dye by incubation in Earls Balanced Salt Solution (EBSS) containing […] DiBAC for 1 h. Following loading, drug solution containing […] DiBAC was added to each well. Changes in fluorescence were measured every 30 s for 25 min. The maximum change in fluorescence was measured and expressed as a percentage of the maximum response obtained in the presence of a positive control agent.
row,SMILES,EC50 [nM]
1,"CC(C)(C)Cc1c(NC(=O)Cc2ccc(Cl)cc2)nc2ccc(C(F)(F)F)cn12 [Compound 27, 2-(4-chlorophenyl)-N-(3-neopentyl-6-(trifluoromethyl)imidazo[1,2-a]pyridin-2-yl)acetamide]",< 500
2,"CC(C)(C)CC(=O)Nc1nc2ccc(F)cn2c1Cc1ccc(C(F)(F)F)cc1 [Compound 28, N-(6-fluoro-3-(4-(trifluoromethyl)benzyl)imidazo[1,2-a]pyridin-2-yl)-3,3-dimethylbutanamide]",< 500
3,"CC(CC(=O)Nc1nc2ccc(F)cn2c1Cc1ccc(C(F)(F)F)cc1)C(F)(F)F (stereo not drawn) [Compound 29, 4,4,4-trifluoro-N-(6-fluoro-3-(4-(trifluoromethyl)benzyl)imidazo[1,2-a]pyridin-2-yl)-3-methylbutanamide]",< 500
4,"CC(C)C(C)C(=O)Nc1nc2ccc(F)cn2c1Cc1ccc(C(F)(F)F)cc1 (stereo not drawn) [Compound 30, N-(6-fluoro-3-(4-(trifluoromethyl)benzyl)imidazo[1,2-a]pyridin-2-yl)-2,3-dimethylbutanamide]",500 to 3000
5,"CC(C)CCc1c(NC(=O)CC(C)(C)C)nc2ccc(C(F)(F)F)cn12 [Compound 31, N-(3-isopentyl-6-(trifluoromethyl)imidazo[1,2-a]pyridin-2-yl)-3,3-dimethylbutanamide]",< 500
6,"CC(C)(C)CC(=O)Nc1nc2ccc(C(F)(F)F)cn2c1C1CCCCC1 [Compound 33, N-(3-cyclohexyl-6-(trifluoromethyl)imidazo[1,2-a]pyridin-2-yl)-3,3-dimethylbutanamide]",< 500
7,"CC(C)(C)Cc1c(NC(=O)CC2(C)CCCC2)nc2ccc(C(F)(F)F)cn12 [Compound 34, 2-(1-methylcyclopentyl)-N-(3-neopentyl-6-(trifluoromethyl)imidazo[1,2-a]pyridin-2-yl)acetamide]",< 500
8,"CC(C)(C)Cc1c(NC(=O)Cc2cccc(Cl)c2)nc2ccc(C(F)(F)F)cn12 [Compound 35, 2-(3-chlorophenyl)-N-(3-neopentyl-6-(trifluoromethyl)imidazo[1,2-a]pyridin-2-yl)acetamide]",< 500
9,"CC(C)CCc1c(NC(=O)Cc2ccccc2)nc2ccc(C(F)(F)F)cn12 [Compound 36, N-(3-isopentyl-6-(trifluoromethyl)imidazo[1,2-a]pyridin-2-yl)-2-phenylacetamide]",< 500
10,"O=C(Cc1ccccc1)Nc1nc2ccc(C(F)(F)F)cn2c1CC1CCCCC1 [Compound 37, N-(3-(cyclohexylmethyl)-6-(trifluoromethyl)imidazo[1,2-a]pyridin-2-yl)-2-phenylacetamide]",< 500
11,"CC(C)CCc1c(NC(=O)Cc2ccc(F)cc2)nc2ccc(C(F)(F)F)cn12 [Compound 39, 2-(4-fluorophenyl)-N-(3-isopentyl-6-(trifluoromethyl)imidazo[1,2-a]pyridin-2-yl)acetamide]",< 500
12,"O=C(Cc1ccc(F)cc1)Nc1nc2ccc(C(F)(F)F)cn2c1CC1CCCCC1 [Compound 40, N-(3-(cyclohexylmethyl)-6-(trifluoromethyl)imidazo[1,2-a]pyridin-2-yl)-2-(4-fluorophenyl)acetamide]",< 500
13,"O=C(Cc1ccc(F)cc1)Nc1nc2ccc(C(F)(F)F)cn2c1C1CCCCC1 [Compound 41, N-(3-cyclohexyl-6-(trifluoromethyl)imidazo[1,2-a]pyridin-2-yl)-2-(4-fluorophenyl)acetamide]",< 500
14,"CC(C)CCc1c(NC(=O)Cc2cccc(Cl)c2)nc2ccc(C(F)(F)F)cn12 [Compound 42, 2-(3-chlorophenyl)-N-(3-isopentyl-6-(trifluoromethyl)imidazo[1,2-a]pyridin-2-yl)acetamide]",< 500
15,"O=C(Cc1cccc(Cl)c1)Nc1nc2ccc(C(F)(F)F)cn2c1CC1CCCCC1 [Compound 43, 2-(3-chlorophenyl)-N-(3-(cyclohexylmethyl)-6-(trifluoromethyl)imidazo[1,2-a]pyridin-2-yl)acetamide]",< 500
16,"O=C(Cc1cccc(Cl)c1)Nc1nc2ccc(C(F)(F)F)cn2c1C1CCCCC1 [Compound 44, 2-(3-chlorophenyl)-N-(3-cyclohexyl-6-(trifluoromethyl)imidazo[1,2-a]pyridin-2-yl)acetamide]",< 500
17,"CC(C)CCc1c(NC(=O)CC2(C)CCCC2)nc2ccc(C(F)(F)F)cn12 [Compound 45, N-(3-isopentyl-6-(trifluoromethyl)imidazo[1,2-a]pyridin-2-yl)-2-(1-methylcyclopentyl)acetamide]",< 500
18,"CC1(CC(=O)Nc2nc3ccc(C(F)(F)F)cn3c2CC2CCCCC2)CCCC1 [Compound 46, N-(3-(cyclohexylmethyl)-6-(trifluoromethyl)imidazo[1,2-a]pyridin-2-yl)-2-(1-methylcyclopentyl)acetamide]",< 500

row,SMILES,EC50 [nM]
1,"CC1(CC(=O)Nc2nc3ccc(C(F)(F)F)cn3c2C2CCCCC2)CCCC1 [Compound 47, N-(3-cyclohexyl-6-(trifluoromethyl)imidazo[1,2-a]pyridin-2-yl)-2-(1-methylcyclopentyl)acetamide]",< 500
2,"CC(C)(C)CC(=O)Nc1nc2ccc(C(F)(F)F)cn2c1C1CCCC1 [Compound 48, N-(3-cyclopentyl-6-(trifluoromethyl)imidazo[1,2-a]pyridin-2-yl)-3,3-dimethylbutanamide]",< 500
3,"O=C(Cc1ccccc1)Nc1nc2ccc(C(F)(F)F)cn2c1C1CCCC1 [Compound 49, N-(3-cyclopentyl-6-(trifluoromethyl)imidazo[1,2-a]pyridin-2-yl)-2-phenyl acetamide]",< 500
4,"O=C(Cc1ccc(F)cc1)Nc1nc2ccc(C(F)(F)F)cn2c1C1CCCC1 [Compound 50, N-(3-cyclopentyl-6-(trifluoromethyl)imidazo[1,2-a]pyridin-2-yl)-2-(4-fluorophenyl)acetamide]",< 500
5,"O=C(Nc1nc2ccc(C(F)(F)F)cn2c1CC1CCCCC1)C1CCCC1 [Compound 52, N-(3-(cyclohexylmethyl)-6-(trifluoromethyl)imidazo[1,2-a]pyridin-2-yl)cyclopentanecarboxamide]",< 500
6,"CC(C)CCc1c(NC(=O)C2CCCC2)nc2ccc(C(F)(F)F)cn12 [Compound 53, N-(3-isopentyl-6-(trifluoromethyl)imidazo[1,2-a]pyridin-2-yl)cyclopentanecarboxamide]",< 500
7,"O=C(Nc1nc2ccc(C(F)(F)F)cn2c1C1CCCCC1)C1CCCC1 [Compound 54, N-(3-cyclohexyl-6-(trifluoromethyl)imidazo[1,2-a]pyridin-2-yl)cyclopentanecarboxamide]",< 500
8,"O=C(Nc1nc2ccc(C(F)(F)F)cn2c1C1CCCC1)C1CCCC1 [Compound 55, N-(3-cyclopentyl-6-(trifluoromethyl)imidazo[1,2-a]pyridin-2-yl)cyclopentanecarboxamide]",< 500
9,"CC1(CC(=O)Nc2nc3ccc(C(F)(F)F)cn3c2C2CCCC2)CCCC1 [Compound 56, N-(3-cyclopentyl-6-(trifluoromethyl)imidazo[1,2-a]pyridin-2-yl)-2-(1-methylcyclopentyl)acetamide]",< 500
10,"CC(C)(C)Cc1c(NC(=O)CC2CC2)nc2ccc(C(F)(F)F)cn12 [Compound 57, 2-cyclopropyl-N-(3-neopentyl-6-(trifluoromethyl)imidazo[1,2-a]pyridin-2-yl)acetamide]",< 500
11,"CCC(C)CC(=O)Nc1nc2ccc(C(F)(F)F)cn2c1CC(C)(C)C (stereo not drawn) [Compound 58, 3-methyl-N-(3-neopentyl-6-(trifluoromethyl)imidazo[1,2-a]pyridin-2-yl)pentanamide]",< 500
12,"CC(C)(C)Cc1c(NC(=O)C2CCCCC2)nc2ccc(C(F)(F)F)cn12 [Compound 59, N-(3-neopentyl-6-(trifluoromethyl)imidazo[1,2-a]pyridin-2-yl)cyclohexanecarboxamide]",< 500
13,"CC(C)(C)Cc1c(NC(=O)CC(F)(F)F)nc2ccc(C(F)(F)F)cn12 [Compound 60, 3,3,3-trifluoro-N-(3-neopentyl-6-(trifluoromethyl)imidazo[1,2-a]pyridin-2-yl)propanamide]",< 500
14,"CC(C)(C)Cc1c(NC(=O)Cc2ccc(C(F)(F)F)cc2)nc2ccc(C(F)(F)F)cn12 [Compound 61, N-(3-neopentyl-6-(trifluoromethyl)imidazo[1,2-a]pyridin-2-yl)-2-(4-(trifluoromethyl)phenyl)acetamide]",< 500
15,"CC(=O)Nc1nc2ccc(C(F)(F)F)cn2c1CC(C)(C)C [Compound 62, N-(3-neopentyl-6-(trifluoromethyl)imidazo[1,2-a]pyridin-2-yl)acetamide]",3000 to 10000
16,"CC(C)CC(=O)Nc1nc2ccc(C(F)(F)F)cn2c1CC(C)(C)C [Compound 63, 3-methyl-N-(3-neopentyl-6-(trifluoromethyl)imidazo[1,2-a]pyridin-2-yl)butanamide]",500 to 3000
17,"CC(C)(C)Cc1c(NC(=O)C2CC2)nc2ccc(C(F)(F)F)cn12 [Compound 64, N-(3-neopentyl-6-(trifluoromethyl)imidazo[1,2-a]pyridin-2-yl)cyclopropanecarboxamide]",500 to 3000
18,"CC(C)(C)CC(=O)Nc1nc2ccc(F)cn2c1CC1CCCCC1 [Compound 66, N-(3-(cyclohexylmethyl)-6-fluoroimidazo[1,2-a]pyridin-2-yl)-3,3-dimethylbutanamide]",< 500
